The test deals with clonic seizures caused by pentylenetetrazole in rats. The test is described as follows: Protection against clonic seizures caused by pentylenetetrazole in rats (oral). In kind it is in vivo, rat. The following applies: for effectiveness as anxiolytic agents versus closest prior art compound (respective dextrorotatory and racemic forms without 10-methyl): pentylenetetrazole test in rats, compared with Compounds 4 and 5. Here is the method: The anti-anxiety properties of the compounds of the present invention have been established in a test which indicates anxiolytic activity by a measure of protection from convulsions resulting from the administration of pentylenetetrazol. Graded dose levels of the dextro and racemic forms of the 1,2,3,11a-tetrahydro-10-methyl-5H-pyrrolo[2,1-c][1,4]benzodiazepin-5,11(10H)-diones are administered orally, in a 2% starch vehicle, to groups of at least 5 rats. At the estimated time of peak effect, the rats are treated intravenously with pentylenetetrazole at a dose of 21 to 23 mg/kg of body weight. This dose is estimated to cause clonic seizures in 99% of unprotected rats. The effective dose of the test compound for protection of 50% of the animals is calculated by the method of J. T. Litchfield and F. Wilcoxon, Journal of Pharmacology and Experimental Therapeutics, 96, 99 (1949). The results are given in the table which follows in comparison with Librium (chlordiazepoxide), Valium (diazepam) and the dextro and racemic forms of 1,2,3,11a-tetrahydro-5H-pyrrolo-[2,1-c] [1,4]benzodiazepin-5,11(10H)-dione (U.S. Pat. No. 3,732,212) all of which were tested in exactly the same manner. It has been reported [R. T. Hill and D. H. Tedeschi, "Animal Testing and Screening Procedures in Evaluating Psychotropic Drugs" in An Introduction to Psychopharmacology, Eds. R. R. Rech and K. E. Moore, Raven Press, New York, pp. 237-288 (1971)] that there is a high degree of correlation between antagonism of pentylenetetrazole seizures in rats and antianxiety effects in higher warm-blooded animals.

Take `CN1C(=O)C2CCCN2C(=O)c2ccccc21` (racemic) [Compound 3, Racemic (DL) 1,2,3,11a-Tetrahydro-10-methyl-5H-pyrrolo[2,1-c][1,4]benzodiazepin-5,11(10H)-dione]: the “effectiveness as anxiolytic agents versus closest prior art compound (respective dextrorotatory and racemic forms without 10-methyl)” value is given as “far more effective”.

On to `CN1C(=O)[C@@H]2CCCN2C(=O)c2ccccc21` [Compound 2, Dextrorotatory 1,2,3,11a-Tetrahydro-10-methyl-5H-pyrrolo[2,1-c][1,4]benzodiazepin-5,11(10H)-dione], for which the “effectiveness as anxiolytic agents versus closest prior art compound (respective dextrorotatory and racemic forms without 10-methyl)” value is given as “far more effective”.

As to `CN1C(=O)[C@@H]2CCCN2C(=O)c2cc(F)ccc21` [Dextrorotatory 7-Fluoro-1,2,3,11a-tetrahydro-10-methyl-5H-pyrrolo[2,1-c][1,4]benzodiazepin-5,11(10H)-dione], the “effectiveness as anxiolytic agents versus closest prior art compound (respective dextrorotatory and racemic forms without 10-methyl)” value was “far more effective”. The ED50 (Rattus norvegicus, 2% starch vehicle, at least 5 rats per group, pentylenetetrazole 21 to 23 mg/kg intravenously at estimated time of peak effect, Litchfield and Wilcoxon, read-out: Medium Effective Oral Dose ED50, protection against clonic seizures caused by pentylenetetrazole) is 4 mg/kg.

The record behind these values is US3985732A, “1,2,3,11A-Tetrahydro-10-methyl-5H-pyrrolo[2,1-c][1,4]ben zodiazepin-5,11(10H)-diones” (American Cyanamid Company, priority 1975, dated 1976).
